The results in this text go back to US9840478B2 (MERCK SHARP & DOHME CORP., priority 2013, dated 2017).

The test system of the experiment is HIV-1 (H9IIIB strain). In words: Cell-based HIV infection assay using a reporter (Cell-Based), MT4-GFP cells. Conditions: Human immunodeficiency virus 1, MT4-GFP cells infected with HIV-1 H9IIIB; 50% normal human serum; mean of at least two independent experiments; read-out: Cell-based IP. The essentials: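 IC50 from 4-parameter dose-response of % viral growth inhibition, using the 48 h/24 h infected-cell ratio scaled between DMSO and a protease/integrase/NNRTI triple-drug control. Assay used MT4 cells with HIV-LTR-GFP reporter, pre-infected 24 h with HIV-1 H9IIIB, in 50% normal human serum.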

In the case of `CC(C)[C@H](c1ccc(Cl)cc1)[C@H](N)C(=O)Nc1cccc(F)c1CC[C@H]1CNC[C@H](C)N1S(C)(=O)=O` [Example 122, (βR)-4-chloro-N-(3-fluoro-2-{2-[(2S,6S)-6-methyl-1-(methylsulfonyl)piperazin-2-yl]ethyl}phenyl)-β-(1-methylethyl)-L-phenylalaninamide], the IC50 was 360 nM. Then `COC(=O)N[C@H](C(=O)Nc1cccc(F)c1CC[C@H]1CNC[C@H](C)N1S(C)(=O)=O)[C@@H](c1ccc(Cl)cc1)C(C)C` [Example 123, (βR)-4-chloro-N-(3-fluoro-2-{2-[(2S,6S)-6-methyl-1-(methylsulfonyl)piperazin-2-yl]ethyl}phenyl)-Nα-(methoxycarbonyl)-β-(1-methylethyl)-L-phenylalaninamide], with 62 nM. Then `COc1ccc(S(=O)(=O)N2[C@@H](CCc3c(F)cccc3NC(=O)[C@@H](N)[C@@H](c3ccc(Cl)cc3)C(C)C)CNC[C@@H]2C)cc1` [Example 124, (βR)-4-chloro-N-[3-fluoro-2-(2-{(2S,6S)-1-[(4-methoxyphenyl)sulfonyl]-6-methylpiperazin-2-yl}ethyl)phenyl]-β-(1-methylethyl)-L-phenylalaninamide], with 63 nM; and `COC(=O)N[C@H](C(=O)Nc1cccc(F)c1CC[C@H]1CNC[C@H](C)N1S(=O)(=O)c1ccc(OC)cc1)[C@@H](c1ccc(Cl)cc1)C(C)C` [Example 125, (βR)-4-chloro-N-[3-fluoro-2-(2-{(2S,6S)-1-[(4-methoxyphenyl)sulfonyl]-6-methylpiperazin-2-yl}ethyl)phenyl]-Nα-(methoxycarbonyl)-β-(1-methylethyl)-L-phenylalaninamide], with 18 nM; and `CC(C)[C@H](c1ccc(Cl)cc1)[C@H](N)C(=O)Nc1cncc(F)c1CC[C@H]1CNC[C@H](C)N1S(=O)(=O)c1ccccc1` [Example 126, (βR)-4-chloro-N-(5-fluoro-4-{2-[(2S,6S)-6-methyl-1-(phenylsulfonyl)piperazin-2-yl]ethyl}pyridin-3-yl)-β-(1-methylethyl)-L-phenylalaninamide], with 16 nM. As to `CC(C)[C@H](c1ccc(Cl)cc1)[C@H](N)C(=O)Nc1cccc(F)c1CC[C@H]1CNC[C@H](C)N1S(=O)(=O)C1CC1` [Example 127, (βR)-4-chloro-N-(2-{2-[(2S,6S)-1-(cyclopropylsulfonyl)-6-methylpiperazin-2-yl]ethyl}-3-fluorophenyl)-β-(1-methylethyl)-L-phenylalaninamide], the IC50 worked out at 300 nM. Turning to `CC(C)[C@H](c1ccc(Cl)cc1)[C@H](N)C(=O)Nc1cccc(F)c1CC[C@H]1CNC[C@@H](C)N1S(=O)(=O)C1CC1` [Example 128, (βR)-4-chloro-N-(2-{2-[(2S,6R)-1-(cyclopropylsulfonyl)-6-methylpiperazin-2-yl]ethyl}-3-fluorophenyl)-β-(1-methylethyl)-L-phenylalaninamide], the IC50 is 610 nM.

On to `C[C@H]1CNC[C@H](CCc2c(F)cccc2NC(=O)[C@@H](N)[C@@H](c2ccc(F)cc2)C2CCOCC2)N1S(C)(=O)=O` [Example 129, (βR)-4-fluoro-N-(3-fluoro-2-{2-[(2S,6S)-6-methyl-1-(methylsulfonyl)piperazin-2-yl]ethyl}phenyl)-β-(tetrahydro-2H-pyran-4-yl)-L-phenylalaninamide], for which the IC50 was 210 nM. For the compound `COC(=O)N[C@H](C(=O)Nc1cccc(F)c1CC[C@H]1CNC[C@H](C)N1S(C)(=O)=O)[C@@H](c1ccc(F)cc1)C1CCOCC1` [Example 130, (βR)-4-fluoro-N-(3-fluoro-2-{2-[(2S,6S)-6-methyl-1-(methylsulfonyl)piperazin-2-yl]ethyl}phenyl)-Nα-(methoxycarbonyl)-β-(tetrahydro-2H-pyran-4-yl)-L-phenylalaninamide], the IC50 amounted to 55 nM. As to `C[C@H]1CNC[C@H](CCc2c(F)cccc2NC(=O)[C@@H](N)[C@@H](c2ccc(Cl)cc2)C2CCOCC2)N1S(=O)(=O)c1ccccc1` [Example 131, (βR)-4-chloro-N-(3-fluoro-2-{2-[(2S,6S)-6-methyl-1-(phenylsulfonyl)piperazin-2-yl]ethyl}phenyl)-β-(tetrahydro-2H-pyran-4-yl)-L-phenylalaninamide], the IC50 stood at 17 nM. On to `COC(=O)N[C@H](C(=O)Nc1cccc(F)c1CC[C@H]1CNC[C@H](C)N1S(=O)(=O)c1ccccc1)[C@@H](c1ccc(Cl)cc1)C1CCOCC1` [Example 132, (βR)-4-chloro-N-(3-fluoro-2-{2-[(2S,6S)-6-methyl-1-(phenylsulfonyl)piperazin-2-yl]ethyl}phenyl)-Nα-(methoxycarbonyl)-β-(tetrahydro-2H-pyran-4-yl)-L-phenylalaninamide], for which the IC50 was 11 nM. For the compound `C[C@@H]1CNC[C@H](CCc2c(F)cccc2NC(=O)[C@@H](N)C(c2cccc(F)c2)c2cccc(F)c2)N1S(=O)(=O)c1ccccc1` [Example 133, 3-fluoro-N-(3-fluoro-2-{2-[(2S,6R)-6-methyl-1-(phenylsulfonyl)piperazin-2-yl]ethyl}phenyl)-β-(3-fluorophenyl)-L-phenylalaninamide], the IC50 turned out to be 55 nM. Turning to `COC(=O)N[C@H](C(=O)Nc1cccc(F)c1CC[C@H]1CNC[C@@H](C)N1S(=O)(=O)c1ccccc1)C(c1cccc(F)c1)c1cccc(F)c1` [Example 134, 3-fluoro-N-(3-fluoro-2-{2-[(2S,6R)-6-methyl-1-(phenylsulfonyl)piperazin-2-yl]ethyl}phenyl)-β-(3-fluorophenyl)-Nα-(methoxycarbonyl)-L-phenylalaninamide], the IC50 came out at 63 nM.

Take `C[C@@H]1CNC[C@H](CCc2c(F)cncc2NC(=O)[C@@H](N)[C@@H](c2ccc(Cl)cc2)c2cccc(F)c2)N1S(=O)(=O)c1ccccc1` [Example 135, (βS)-4-chloro-N-(5-fluoro-4-{2-[(2S,6R)-6-methyl-1-(phenylsulfonyl)piperazin-2-yl]ethyl}pyridin-3-yl)-β-(3-fluorophenyl)-L-phenylalaninamide]: the IC50 worked out at 23 nM.

`COC(=O)N[C@H](C(=O)Nc1cncc(F)c1CC[C@H]1CNC[C@H](C)N1S(=O)(=O)c1ccc(OC)cc1)[C@@H](c1ccc(Cl)cc1)C1CCOCC1` [Example 136, (βR)-4-chloro-N-[5-fluoro-4-(2-{(2S,6S)-1-[(4-methoxyphenyl)sulfonyl]-6-methylpiperazin-2-yl}ethyl)pyridin-3-yl]-Nα-(methoxycarbonyl)-β-(tetrahydro-2H-pyran-4-yl)-L-phenylalaninamide]: the IC50 worked out at 10 nM. As for `C[C@H]1CNC[C@H](CCc2c(F)cccc2NC(=O)[C@@H](N)C(c2cccc(F)c2)c2cccc(F)c2)N1S(=O)(=O)c1ccccc1Cl` [Example 137, N-[2-(2-{(2S,6S)-1-[(2-chlorophenyl)sulfonyl]-6-methylpiperazin-2-yl}ethyl)-3-fluorophenyl]-3-fluoro-β-(3-fluorophenyl)-L-phenylalaninamide], the figure is 240 nM; as for `COC(=O)N[C@H](C(=O)Nc1cccc(F)c1CC[C@H]1CNC[C@H](C)N1S(=O)(=O)c1ccccc1Cl)C(c1cccc(F)c1)c1cccc(F)c1` [Example 138, N-[2-(2-{(2S,6S)-1-[(2-chlorophenyl)sulfonyl]-6-methylpiperazin-2-yl}ethyl)-3-fluorophenyl]-3-fluoro-β-(3-fluorophenyl)-Nα-(methoxycarbonyl)-L-phenylalaninamide], 150 nM; as for `COC(=O)N[C@H](C(=O)Nc1cccc(F)c1CC[C@H]1CNC[C@H](C)N1S(C)(=O)=O)[C@@H](c1ccc(Cl)cc1)C1CCOCC1` [Example 139, (βR)-4-chloro-N-(3-fluoro-2-{2-[(2S,6S)-6-methyl-1-(methylsulfonyl)piperazin-2-yl]ethyl}phenyl)-Nα-(methoxycarbonyl)-β-(tetrahydro-2H-pyran-4-yl)-L-phenylalaninamide], 36 nM. For the compound `CC(C)[C@H](c1ccc(Cl)cc1)[C@H](N)C(=O)Nc1cccc(F)c1CC[C@H]1CNC[C@H](C)N1S(=O)(=O)c1ccc(OC(F)(F)F)cc1` [Example 140, (βR)-4-chloro-N-(3-fluoro-2-{2-[(2S,6S)-6-methyl-1-{[4-(trifluoromethoxy)phenyl]sulfonyl}piperazin-2-yl]ethyl}phenyl)-β-(1-methylethyl)-L-phenylalaninamide], the IC50 amounted to 250 nM. As to `C[C@H]1CNC[C@H](CCc2c(F)cccc2NC(=O)[C@@H](N)[C@@H](c2ccc(Cl)cc2)C2CCOCC2)N1S(=O)(=O)C1CC1` [Example 141, (βR)-4-chloro-N-(2-{2-[(2S,6S)-1-(cyclopropylsulfonyl)-6-methylpiperazin-2-yl]ethyl}-3-fluorophenyl)-β-(tetrahydro-2H-pyran-4-yl)-L-phenylalaninamide], the IC50 turned out to be 77 nM. Turning to `COC(=O)N[C@H](C(=O)Nc1cccc(F)c1CC[C@H]1CNC[C@H](C)N1S(=O)(=O)c1ccc(OC(F)(F)F)cc1)[C@@H](c1ccc(Cl)cc1)C(C)C` [Example 142, (βR)-4-chloro-N-(3-fluoro-2-{2-[(2S,6S)-6-methyl-1-{[4-(trifluoromethoxy)phenyl]sulfonyl}piperazin-2-yl]ethyl}phenyl)-Nα-(methoxycarbonyl)-β-(1-methylethyl)-L-phenylalaninamide], the IC50 is 84 nM. On to `COC(=O)N[C@H](C(=O)Nc1cccc(F)c1CC[C@H]1CNC[C@H](C)N1S(=O)(=O)c1ccccc1Cl)[C@@H](c1ccc(Cl)cc1)C(C)C` [Example 143, (βR)-4-chloro-N-[2-(2-{(2S,6S)-1-[(2-chlorophenyl)sulfonyl]-6-methylpiperazin-2-yl}ethyl)-3-fluorophenyl]-Nα-(methoxycarbonyl)-β-(1-methylethyl)-L-phenylalaninamide], for which the IC50 is 570 nM. In the case of `COC(=O)N[C@H](C(=O)Nc1cccc(F)c1CC[C@H]1CNC[C@H](C)N1S(=O)(=O)C1CC1)[C@@H](c1ccc(Cl)cc1)C(C)C` [Example 144, (βR)-4-chloro-N-(2-{2-[(2S,6S)-1-(cyclopropylsulfonyl)-6-methylpiperazin-2-yl]ethyl}-3-fluorophenyl)-Nα-(methoxycarbonyl)-β-(1-methylethyl)-L-phenylalaninamide], the IC50 is 93 nM.
